How the values were obtained:
[1] = molecular target: T1, MMP-3 (Homo sapiens, UniProt P08254); test: Automated MMP Profiling Assay, MMP-3 fluorogenic; assay type: biochemical; conditions: 96-well automated, P218
T1 construct: Truncated Prostromelysin-257 was expressed in a soluble form in E.coli; made in house; host or cells: E. coli
Description: This assay with each invention compound was run with the three enzymes MMP-3, MMP-9 and MMP-2 in parallel as adapted for a 96-well microtitre plate using a Hamilton A® workstation.

[2] = molecular target: T2, MMP-9 (Homo sapiens, UniProt P14780); test: Automated MMP Profiling Assay, MMP-9 fluorogenic; assay type: biochemical; conditions: 96-well automated, P218
T2 construct: from tissue; host or cells: human polymorphonuclear leukocytes (PMN) from whole blood (New York Blood Center), PMA-stimulated supernatant
T2 sequence (P14780 107-707 limits assumed): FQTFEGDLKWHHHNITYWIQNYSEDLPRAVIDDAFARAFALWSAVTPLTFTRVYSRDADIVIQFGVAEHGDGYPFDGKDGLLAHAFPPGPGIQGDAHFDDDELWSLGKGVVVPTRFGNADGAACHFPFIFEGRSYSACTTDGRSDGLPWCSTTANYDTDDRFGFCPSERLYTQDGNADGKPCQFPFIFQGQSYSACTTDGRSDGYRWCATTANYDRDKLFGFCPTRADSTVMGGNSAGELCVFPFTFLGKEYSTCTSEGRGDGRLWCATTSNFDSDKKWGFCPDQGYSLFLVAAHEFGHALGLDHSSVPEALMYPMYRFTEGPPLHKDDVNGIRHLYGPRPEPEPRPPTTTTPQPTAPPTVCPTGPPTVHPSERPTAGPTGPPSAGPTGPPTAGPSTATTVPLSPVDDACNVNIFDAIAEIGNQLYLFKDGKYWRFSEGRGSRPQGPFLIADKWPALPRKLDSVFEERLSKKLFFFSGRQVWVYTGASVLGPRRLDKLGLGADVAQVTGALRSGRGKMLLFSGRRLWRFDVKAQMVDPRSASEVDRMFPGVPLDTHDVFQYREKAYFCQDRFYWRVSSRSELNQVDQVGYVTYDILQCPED

[3] = molecular target: T3, MMP-2 (Homo sapiens, UniProt P08253); test: Automated MMP Profiling Assay, MMP-2 fluorogenic; assay type: biochemical; conditions: 96-well automated, P218; read-out: MMP-2 Fluorogenic IC50 (profiling)
T3 sequence (P08253 110-660): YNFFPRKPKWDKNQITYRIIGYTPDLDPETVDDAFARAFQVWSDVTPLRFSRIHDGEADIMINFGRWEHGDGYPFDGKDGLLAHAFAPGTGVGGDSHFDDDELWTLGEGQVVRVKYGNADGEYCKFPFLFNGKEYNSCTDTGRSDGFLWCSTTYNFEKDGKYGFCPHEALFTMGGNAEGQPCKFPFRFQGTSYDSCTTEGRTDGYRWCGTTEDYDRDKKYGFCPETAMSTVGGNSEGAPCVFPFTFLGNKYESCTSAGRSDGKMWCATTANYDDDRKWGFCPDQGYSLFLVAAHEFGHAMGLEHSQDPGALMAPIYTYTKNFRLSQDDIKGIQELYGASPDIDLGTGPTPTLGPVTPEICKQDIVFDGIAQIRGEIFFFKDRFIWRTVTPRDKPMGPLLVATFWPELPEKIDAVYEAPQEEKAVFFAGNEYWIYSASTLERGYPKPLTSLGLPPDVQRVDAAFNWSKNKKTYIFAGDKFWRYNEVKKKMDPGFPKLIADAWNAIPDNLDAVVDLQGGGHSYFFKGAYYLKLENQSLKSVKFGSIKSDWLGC

[4] = system: Femoral Lesion; test: Inhibition of Cartilage Lesions in a Guinea Pig Model of Osteoarthritis; assay type: in vivo; conditions: 15 mg/kg oral gavage daily, 33 days, vs vehicle
Protocol: Pathol. 1987 24, 444-448. Seven of the invention compounds were dissolved at 15 mg/ml in a vehicle of 10 mg/ml Tween 80, 190 mg/ml PEG and 0.44 mg/ml ethanolamine. This concentrate was diluted 1:1 with water before dosing (final concentration 7.5 mg/ml). On the 5th day before surgery, each animal received either a test compound plus vehicle or vehicle only administered by oral gavage each day at 15 mg/kg (2 ml/kg) up to surgery and then for four weeks post surgery (total 33 days of dosing). At the beginning of dosing and twice weekly thereafter the animals were weighed and the dose of the respective compounds or vehicles were calculated and adjusted if necessary. At the conclusion of the study the animals were euthanized by CO2 asphyxiation and their stifles removed, partially dissected and placed in 10% neutral buffered formalin. The extent of lesion development on the femoral head was measured by computer assisted surface area analysis.

[5] = molecular target: T1, MMP-3; test: Primary Thiopeptilide MMP-3 Inhibition Assay; assay type: biochemical; conditions: pH 6.5; 13 nM stromelysin; x (n) = average of n determinations; read-out: MMP-3 Thiopep. IC50
Protocol: Enzyme: recombinant stromelysin expressed in E.coli and purified as described above. […] The protocols for the assay of compounds as stromelysin inhibitors was the same as that used for MMP-9 except that the assay buffer was 50 mM MES, pH 6.5 containing 150 mM NaCl, 10 mM CaCl2, 0.005% Brij, and 1% DMSO.

[6] = molecular target: T1, MMP-3; test: Secondary P218 Quenched fluorescence Assay for MMP-3 Inhibition; assay type: biochemical; conditions: P218 substrate, pH 6.5, 25° C.; x (n) = average of n determinations; read-out: MMP-3 Fluorogenic IC50
Protocol: Truncated Prostromelysin-257 was expressed in a soluble form in E.coli as described by Marcy et al., Biochemistry, 30, 6476-6483, 1991. Soluble truncated prostromelysin was purified by a modification of the monoclonal antibody affinity chromatography method described by Housley et al., J. Biol. Chem., 268, 4481-87, 1993.
The assay is run continuously in a 3.0 ml cuvette using a Perkin-Elmer LS 50 B Spectrofluorimeter at 25° C. in a final volume of 2.0 mls. P218 substrate (10 mM) in 100% DMSO is diluted to a final concentration of 2.0 micromolar (μM) into assay buffer: 50 mM MES, pH 6.5 containing 150 mM NaCl, 10 mM CaCl2, 0.005% Brij-35, and 1%(v/v) DMSO. Test compounds(10 mM) in DMSO are diluted in assay buffer at an initial concentration of 10 to 100 micromolar. […] The reaction is initiated by the addition of recombinant stromelysin (MMP-3) at a final concentration of 1.0 nM. Upon peptide cleavage, the fluorescent MCA group was detected using an excitation wavelength of 328 nanometers and an emission wavelength of 393 nanometers.

[7] = system: MMP; test: MMP inhibitory activity, comparison in words; assay type: biochemical
[8] = molecular target: T2, MMP-9; test: Thiopeptilide MMP-9 Inhibition Assay; assay type: biochemical
[9] = molecular target: T3, MMP-2; test: Secondary P218 Quenched fluorescence Assay for MMP-2 Inhibition; assay type: biochemical; conditions: P218 substrate, 0.2 nM enzyme; x (n) = average of n determinations; read-out: MMP-2 Fluorogenic IC50
[10] = system: inflammation; conditions: R. G. Child et al. 1977; cited from earlier work
[11] = system: human colon tumor; conditions: intraperitoneally; cited from earlier work
[12] = system: human ovarian carcinoma xenografts; conditions: mouse, in vivo; cited from earlier work

T1 sequence (P08254 100-274 limits assumed): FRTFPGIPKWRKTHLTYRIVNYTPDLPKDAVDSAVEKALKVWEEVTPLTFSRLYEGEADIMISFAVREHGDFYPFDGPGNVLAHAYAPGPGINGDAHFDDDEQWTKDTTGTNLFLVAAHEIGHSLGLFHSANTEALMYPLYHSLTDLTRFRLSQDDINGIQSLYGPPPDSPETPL

SMILES	IC50 [1]	IC50 [2]	IC50 [3]	% Inhibition of Femoral Lesion Surface Area [4]	other results
CCCCCOc1ccc(-c2ccc(C(=O)C[C@H](CCCc3ccccc3)C(=O)O)cc2)cc1 [Example 86, 4-[4-(4-pentyloxyphenyl)phenyl]-4-oxo-2S-(3-phenylpropyl)butanoic acid]	51 nM	442 nM	12.5 nM	0%	
O=C(C[C@H](CCCc1ccccc1)C(=O)O)c1ccc(-c2ccc(OCc3ccccc3)cc2)cc1 [Example 100, 4-[4-(4-benzyloxyphenyl)phenyl]-4-oxo-2S-(3-phenylpropyl)butanoic acid]	17 nM	3220 nM	14 nM	37.8%	
O=C(C[C@H](CCCc1ccccc1)C(=O)O)c1ccc(-c2ccc(Cl)cc2)cc1 [Example 116, 4-[4-(4-chlorophenyl)phenyl]-4-oxo-2S-(3-phenylpropyl)butanoic acid]	137 nM	185 nM	38 nM	0%	
O=C(CC(CCCc1ccccc1)C(=O)O)c1ccc(-c2ccccc2)cc1 (stereo not drawn) [Example 135]					IC50 [5]: 2800 nM; IC50 [6]: 2800 nM; MMP inhibitory activity (in words) [7]: low potency
CCN(CC)C(=O)c1cccc(CC[C@@H](CC(=O)c2ccc(-c3ccc(Cl)cc3)cc2)C(=O)O)c1 [Example 145, 4-[4-(4-chlorophenyl)phenyl]-4-oxo-2S-[2-(3-N,N-diethylcarbamoyl)phenyl]butanoic acid]	7.5 nM	19 nM	2.1 nM	46.4%	
O=C(C[C@H](CSc1ccccc1)C(=O)O)c1ccc(-c2ccc(Cl)cc2)cc1 [Example 197, 4-[4-(4-chlorophenyl)phenyl]-4-oxo-2S-(phenylthiomethyl)butanoic acid]			22 nM	18%	IC50 ([8]; pH 6.5, x (n) = average of n determinations, read-out: MMP-9: Thiopep. IC50): 197 nM; IC50 [9]: 26 nM
O=C(C[C@H](CCN1C(=O)c2ccccc2C1=O)C(=O)O)c1ccc(-c2ccc(Cl)cc2)cc1 [Example 268, 4-[4-(4-chlorophenyl)phenyl]-4-oxo-2S-(2-phthalimidoethyl)butanoic acid]	5.73 nM	1.15 nM	0.91 nM	53%	MMP inhibitory activity (in words) [7]: most active
O=C(O)[C@@H]1[C@@H](C(=O)c2ccc(-c3ccc(Cl)cc3)cc2)CC[C@H]1Sc1ccccc1 [Example 296, (1S,2R,5S)-trans-5-[4-(4-chlorophenyl)phenylcarbonyl]-trans-2-phenylthiocyclopentanecarboxylic acid]	44 nM	111 nM	6.4 nM	31%	
COC(=O)c1ccccc1S[C@H]1CC[C@H](C(=O)c2ccc(-c3ccc(Cl)cc3)cc2)[C@H]1C(=O)O [Example 299, (1S,2S,5S)-trans-5-[4-(4-chlorophenyl)phenylcarbonyl]-cis-2-(2-methoxycarbonylphenylthio)cyclopentanecarboxylic acid]	58 nM	531 nM	52 nM	28%	
O=C(O)[C@@H]1[C@@H](CN2C(=O)c3ccccc3C2=O)CC[C@H]1C(=O)c1ccc(-c2ccc(Cl)cc2)cc1 [Example 362, (1R,2S,5R)-trans-5-[4-(4-chlorophenyl)phenylcarbonyl]-trans-2-phthalimidomethylcyclopentanecarboxylic acid]	431 nM	100 nM	183 nM		MMP inhibitory activity (in words) [7]: less active
O=C(O)CC(C(=O)c1ccc(-c2ccccc2)cc1)c1ccccc1 (stereo not drawn) [LXXVII]					anti-inflammatory activity (literature) [10]: inactive
O=C(CC(C(=O)O)c1ccccc1)c1ccc(-c2ccccc2)cc1 (stereo not drawn) [XLIV]					anti-inflammatory activity (literature) [10]: inactive
CC(CC(=O)c1ccc(-c2ccccc2)cc1)C(=O)O (stereo not drawn) [XLVIII]					anti-inflammatory activity (literature) [10]: inactive
CNC(=O)[C@H](Cc1ccccc1)NC(=O)[C@H](CC(C)C)[C@H](CSc1cccs1)C(=O)NO [batimastat]					human colon tumor growth and spread [11]: inhibits human colon tumor growth and spread; survival of mice bearing human ovarian carcinoma xenografts [12]: prolongs the survival
O=C(O)CCC(=O)c1ccc(-c2ccccc2)cc1 [fenbufen, 3-biphenoylpropanoic acid, reference compound]					inhibition at 5 µM ([8]; read-out: MMP-9: Thiopep. % inhibition): 2%; IC50 [9]: 1000 nM; MMP inhibitory activity (in words) [7]: Only minor activity, at best

From patent US5789434A, “Derivatives of substituted 4-biarylbutyric acid as matrix metalloprotease inhibitors” (priority 1995, dated 1998)
